Experimental data as given in patent US9487474B2, “Imino compounds as protecting agents against ultraviolet radiations” (Elkimia, Inc., priority 2012, dated 2016).

Experiments:
Assay type in all cases: physicochemical
[1] = In vitro UV protection performance (SPF in vitro, UVAPF, Critical Wavelength) by the Colipa UVA in vitro Method on PMMA plates; details: for Critical Wavelength λc value: PMMA plate, after UV exposure, 90% of the absorbance integral 290 to 400 nm, >= 370 nm = broad-spectrum; for protection against UVA rays (UVAPF in vitro), in words: UVAPF in vitro measurements; for UVAPF: thin film 0.75 mg/cm^2 on PMMA plate, after UV irradiation (pre-irradiation 800 J/m^2-eff); for SPF in vitro: thin film 0.75 mg/cm^2 on roughened PMMA plate, absorbance before UV exposure
Experimental: The following compounds were evaluated by an in vitro study for the Sun Protection Factor (SPF) in vitro, the UVA Protection Factor (UVAPF) and the Critical Wavelength value using the Colipa UVA in vitro Method.
For determining the SPF in vitro value, the protection performance of the compounds against erythemally-effective UV radiation, largely confined to the UVB (290-320 nm) and short-wavelength UVA (320-340) region was calculated from the measured in vitro transmittance. The in vitro UVAPF, the UVA protection (320-400 nm) was calculated from the measured in vitro transmittance after irradiation. The Critical Wavelength Value was defined as the wavelength at which the integral of the spectral absorbance curve reached 90% of the integral over the UV spectrum from 290 to 400 nm. It has been settled that this value must be equal or over 370 nm so as to classify the product as broad-spectrum. The study consisted in a comparative assay of non-treated plates against plates treated with each of the compounds and was based on the evaluation of UV-transmittance through a thin film of sunscreen sample spread on a roughened substrate, before an after exposure to a controlled dose of UV radiation from a UV source. A Kontron 933 spectrophotomer equipped with a UV source, an integrating sphere and a monochromatic light able to deliver a flow of energy between 290 and 400 nm was used. The transmittance values were measured at 1 nm intervals. A 10-4 precision laboratory balance was used to control deposited product weight. The irradiation was provided by Sunset Atlas CPS+ with standard filter. Temperature regulation of the equipment was done in the range of 25-35° C. A pre-irradiation dose of 4 times 200 J/m^2-eff (800 J/m^2-eff) was delivered. The substrate was the material to which the sunscreen product was applied. Polymethylmethacrylate (PMMA) plates were used and were roughened on one side to a three-dimensional surface topography of 5 micrometers. Each compound was weighted and applied evenly to the PMMA plate with a 2-phase spreading to achieve a 0.75 mg/cm^2 weight/surface ratio. Spreading was performed with a light spreading move for approximately 30 seconds followed by spreading with greater pressure for approximately 30 seconds. The resulting sample was left to equilibrate for 15 minutes in the dark at room temperature to ensure a self-leveling if the formula. To account for lack of photostability, a pre-irradiation was necessary. The pre-irradiation dose was 4 minimal erythema dose (MEDs), equivalent to 800 J/m^2-eff. Five measurements of spectral irradiance transmitted for each wavelength through the PMMA plate covered with the sunscreen product were obtained after pre-irradiation of the sunscreen product [P1( ), P2( ), P3( ), P4( ) and P5( )]. For each compound, mean absorbance values were determined from at least three individual PMMA plates. To validate the accuracy of the results, a control product with an established SPF of 18-20, Lot 11T0313 was tested simultaneously with the compounds. SPF in vitro was calculated for each plate using the following equation (Colipa 2011):
[formula] Where: • E( )=Erythema action spectrum (CEI-1987) • I( )=Spectral irradiance of the UV source • A0( )=Mean monochromatic absorbance measurements per plate of the test compound layer before UV exposure, at each wavelength • d=Wavelength step (1 nm) Calculation of the UVAPF for Each Plate after UV Irradiation (Colipa 2011)
[formula] Where: • P( )=PPD action spectrum • I( )=Spectral irradiance of the UV source • A( )=Mean monochromatic absorbance measurements per plate of the test compound layer after UV exposure, at each wavelength • C=Coefficient of adjustment • d=Wavelength step (1 nm) Calculation of the Critical Wavelength (FDA 2011)
[formula] Where: • A( )=Mean monochromatic absorbance measurements per plate of the compound layer after UV exposure, at each wavelength • d=Wavelength step (1 nm) […]

[2] = UVA/UVB absorption of compound films on glass slides, with and without 20 hours ageing under UV (Xenon instrument); details: for Tested compound UVA % / Tested compound UVB %: absorption A = (Tslide−Tslide+sample)/Tslide×100; for Plate + tested compound UVA % / Plate + tested compound UVB %: transmission T (%)
Experimental: Compounds IE1, IF1, IA2, IE4, IA1, IE2, ID2 and ID3 were evaluated for their UV absorption properties. Samples were prepared as follows: 20 mg of each of the compounds were dissolved into 1 ml of methanol to yield 20 g/L solutions. The solutions were then applied onto two glass slides each. For each compound, one of the slides was aged for 20 hours under UV (Xenon instrument). Samples were then analyzed using a UVA-UVB spectrophotometer in transmission T (%) mode and compared to the non-aged slides. Absorption (A) was calculated using the following formula: Asample=(Tslide−Tslide+sample)/Tslide×100

[3] = UV spectrum (λmax) of the isolated compound
Source text: In other embodiments, the present invention provides methods and techniques for determining the UV-absorbing capacity of the compounds as defined herein. The UV-absorbing properties of the compounds defined herein can be determined by spectrophotometer according to techniques and methods well known in the art. For example, ultraviolet-visible spectroscopy or ultraviolet-visible spectrophotometry (UV-Vis or UV/Vis) may be used to calculate the wavelength of maximal absorption (λmax) of the compound.

[4] = 20 g/L methanol solution on glass slide, no ageing
[5] = ageing for 20 hours under UV (Xenon instrument)

Row | Critical Wavelength λc value [1] [nm] | protection against UVA rays (UVAPF in vitro), in words [1] | UVAPF [1] | SPF in vitro [1] | Tested compound UVA % ([2]; ageing for 20 hours under UV) [%] | Tested compound UVB % ([2]; ageing for 20 hours under UV) [%] | Tested compound UVA % ([2]; no ageing) [%] | Tested compound UVB % ([2]; no ageing) [%] | Plate + tested compound UVA % [2, 4] [%] | Plate + tested compound UVB % [2, 4] [%] | Plate + tested compound UVA % [2, 5] [%] | Plate + tested compound UVB % [2, 5] [%] | UV: λmax ([3]; MeOH/water) [nm] | UV: λmax ([3]; MeOH/water with both 0.1% formic acid) [nm] | SMILES
1 | 390 | good protection against UVA rays | 8.7 | 2.4 | 95.1 | 98.6 | 98.9 | 95.8 | 0.99 | 1.88 | 4.33 | 0.64 |  |  | COc1ccc(/N=C2\CC(C)(C)CC3=C2SCC(C(=O)O)N3)cc1 (stereo not shown) [IA1]
2 |  |  |  |  |  |  |  |  |  |  |  |  | ~345 |  | COc1ccc(/N=C2/C=C(Nc3ccc(OC)cc3)CC(C)(C)C2)cc1 [(E)-N,N′-(5,5-dimethylcyclohex-1-ene-1-yl-3-ylidene)bis(4-methoxyaniline)]
3 |  |  |  |  | 98.9 | 99.0 | 99.5 | 99.2 | 0.44 | 0.34 | 1.00 | 0.46 |  |  | COc1ccc(/N=C2/C=C(NCC(=O)O)CC(C)(C)C2)cc1 [ID2]
4 |  |  |  |  |  |  |  |  |  |  |  |  |  | ~318 | COc1ccc(/N=C2/C=C(NCC(=O)O)CCC2)cc1 [(E)-2-((3-((4-methoxyphenyl)imino)cyclohex-1-en-1-yl)amino)acetic acid]
5 |  |  |  |  | 98.6 | 98.6 | 99.5 | 99.3 | 0.47 | 0.33 | 1.28 | 0.62 |  |  | COc1ccc(/N=C2/C=C(NCC(=O)O)CCC2)cc1 [ID3]
6 | 390 |  | 4.1 | 2.1 | 99.6 | 99.1 | 99.7 | 99.3 | 0.24 | 0.31 | 0.37 | 0.39 |  |  | COc1ccc(/N=C2\CC(C)(C)CC3=C2SCC(C(=O)O)N3)cc1OC (stereo not shown) [IF1]
7 | 390 | good protection against UVA rays | 8.6 | 4.5 | 98.4 | 98.2 | 99.5 | 99.0 | 0.49 | 0.46 | 1.46 | 0.81 |  |  | CC1(C)CC2=C(SCC(C(=O)O)N2)/C(=N/c2ccc(F)cc2)C1 (stereo not shown) [IE4]
8 | 391 | good protection against UVA rays | 13.5 | 3.4 | 98.2 | 97.7 | 98.9 | 98.4 | 1.00 | 0.73 | 1.63 | 1.02 |  |  | CC1(C)CC2=C(SCC(C(=O)O)N2)/C(=N/c2ccc(C(=O)NC(C)(C)C)cc2)C1 (stereo not shown) [IE1]
9 |  |  |  |  | 95.0 | 95.6 | 96.1 | 95.3 | 3.51 | 2.12 | 4.43 | 1.97 |  |  | CC1(C)CC2=C(SCC(C(=O)O)N2)/C(=N/c2ccccc2)C1 (stereo not shown) [IE2, (E)-6,6-dimethyl-8-(phenylimino)-3,4,5,6,7,8-hexahydro-2H-benzo[b][1,4]thiazine-3-carboxylic acid]
